In US20130324428A1, “SPECIFIC BIOMARKER FOR IDENTIFICATION OF EXPOSURE TO LOWER ALIPHATIC SATURATED ALDEHYDES AND THE METHOD OF IDENTIFICATION USING THE SAME” (KOREA INSTITUTE OF SCIENCE AND TECHNOLOGY, priority 2012, published 2013):

How the values were obtained:
Format in all cases: cell-based, human
in vitro = settings: human
Description: (§1) A549 cells (Korean Cell Line Bank), the human lung cancer tissue derived cell line, were cultured in 100 mm dish containing RPMI (Gibro-BRL, USA) supplemented with 10% FBS until the confluency reached 80%. […] The concentration of vehicle was up to 0.1% in every experiment.
(§2) MTT assay was performed with A549 cell line according to the method of Mossman, et al (J. Immunol. Methods, 65, 55-63, 1983).
(§3) Particularly, the cells were distributed in 24-well plate (3.5×10^4 cells/well) containing RPMI (Gibro-BRL, USA) and then treated with lower aliphatic saturated aldehydes dissolved in DMSO. 48 hours later, 5 mg/ml of MTT (3-4,5-dimethylthiazol-2,5-diphenyltetra zolium bromide) was added thereto, followed by culture at 37° C. for 3 hours. Then, the medium was discarded and the formed formazan crystal was dissolved in 500 μl of DMSO, which was aliquoted in 96-well plate. OD540 was measured.

[1] = test system: KIAA1199 (NM_018689) expression in A549 cells; experiment: Oligo microarray gene expression, KIAA1199; settings: A549 cells treated 48 hours at the IC20 concentration; Cy5/Cy3 ratio vs untreated control
Description: (§4) A549 cells were distributed in 6-well plate at the density of 25×10^4 cells/ml, to which lower aliphatic saturated aldehydes were treated for 48 hours at the concentrations determined in Example <1-2>. Total RNA was extracted from the cells by using trizol reagent according to the manufacturer's protocol (Invitrogen life technologies, USA), followed by purification by using RNease mini kit (Qiagen, USA). Genomic DNA was eliminated by using RNase-free DNase set (Qiagen, USA) during the RNA purification. The amount of total RNA was measured with spectrophotometer, and the concentration was confirmed by ND-1000 Spectrophotometer (Thermo Fisher Scientific Inc., USA) and Agilent 2100 Bioanalyzer (Agilent).
(§5) For oligomicroarray analysis, cDNA was synthesized by using the total RNA obtained from the experimental group treated with lower aliphatic saturated aldehydes prepared in Example <2-1>. 30 μg of the obtained total RNA and 2 μg of oilgo (dT) primer (1 μg/μl) were mixed together, followed by reaction at 65° C. for 10 minutes, which was transferred into ice for annealing. Upon completion of annealing, reagents were added thereto as shown in Table 1 to induce reverse transcription of the annealed RNA. The total RNA extracted from the control group A549 cells was labeled with Cy3-dUTP (green). The total RNA extracted from the experimental group A549 cells treated with lower aliphatic saturated aldehydes was labeled with Cy5-dUTP (red). At that time, the two samples were mixed and purified by using Microcon YM-30 column (Millipore, USA).
(§6) Hybridization and washing processes were performed according to the protocol provided by Ebiogen Inc.
(§7) Labeled cRNA was purified. 600 ng of the purified cRNA was reacted at 60° C. for 30 minutes for fragmentation. The prepared cRNA was mixed with 2×GEx Hybridization Buffer HI-RPM. After well mixing, the mixture was loaded on chip, followed by hybridization in the oven at 65° C. for 17 hours. 17 hours later, the chip was washed with GE Wash Buffer […] and with GE Wash Buffer 2 for 1 minute. Centrifugation was performed with the chip at 800 rpm for 3 minutes, followed by drying thereof.
(§8) Hybridization images on the slide were scanned with Agilent C scanner (Agilent technologies, CA, USA). At that time, the green fluorescent image indicated the activity of gene expressed specifically in the control group, while the red fluorescent image indicated the activity of gene expressed specifically in the experimental group. […] To obtain gene expression rate, the scanned images were analyzed by using Agilent Feature Extraction 10.7.3.1 (Agilent technologies, CA, USA). The extracted data proceeded to normalization by using Agilent GeneSpring GX 11.5.1 (Agilent technologies, CA, USA) to analyze gene expression pattern of each gene. The marker gene for lower aliphatic saturated aldehydes was selected from the obtained data.

[2] = test system: KIF1A (NM_004321) expression in A549 cells; experiment: Oligo microarray gene expression, KIF1A; settings: A549 cells treated 48 hours at the IC20 concentration; Cy5/Cy3 ratio vs untreated control
Description: as §4, §5, §6, §7, §8

[3] = test system: EMR2 (NM_013447) expression in A549 cells; experiment: Oligo microarray gene expression, EMR2; settings: A549 cells treated 48 hours at the IC20 concentration; Cy5/Cy3 ratio vs untreated control
Description: as §4, §5, §6, §7, §8

[4] = test system: DHRS9 (NM_005771) expression in A549 cells; experiment: Oligo microarray gene expression, DHRS9; settings: A549 cells treated 48 hours at the IC20 concentration; Cy5/Cy3 ratio vs untreated control
Description: as §4, §5, §6, §7, §8

[5] = test system: B3GALT4 (NM_003782) expression in A549 cells; experiment: Oligo microarray gene expression, B3GALT4; settings: A549 cells treated 48 hours at the IC20 concentration; Cy5/Cy3 ratio vs untreated control
Description: as §4, §5, §6, §7, §8

A549 cells = experiment: in vitro
Description: as §1, §2, §3

| Structure (SMILES) | IC20 at 48 h (in vitro) | IC20 (A549 cells) | Median ratio of microarray, KIAA1199 [1] | Median ratio of microarray, KIF1A [2] | Median ratio of microarray, EMR2 [3] | Median ratio of microarray, DHRS9 [4] | Median ratio of microarray, B3GALT4 [5] |
| --- | --- | --- | --- | --- | --- | --- | --- |
| CCCC=O [butylaldehyde] | – | 4600 µM | 1.733 | 14.175 | 8.094 | 2.353 | 0.498 |
| CCCCCC=O [hexanal] | 800 µM | – | 1.736 | 1.682 | 1.89 | 1.654 | 0.574 |
| CCCCCCC=O [heptanal] | 600 µM | – | 2.815 | 1.955 | 2.25 | 2.157 | 0.634 |

The next lines start with results.

| IC20 at 48 h (in vitro) | IC20 (A549 cells) | Structure (SMILES) | Median ratio of microarray, KIAA1199 [1] | Median ratio of microarray, KIF1A [2] | Median ratio of microarray, EMR2 [3] | Median ratio of microarray, DHRS9 [4] | Median ratio of microarray, B3GALT4 [5] |
| --- | --- | --- | --- | --- | --- | --- | --- |
| 1700 µM | – | CCCCC=O [valeraldehyde] | 3.122 | 7.871 | 6.242 | 2.088 | 0.53 |
| 2500 µM | – | CCC=O [propionaldehyde] | 4.454 | 3.814 | 6.906 | 2.988 | 0.483 |
| 580 µM | – | CCCCCCCC=O [octanal] | 2.294 | 2.262 | 1.785 | 3.057 | 0.564 |
